Data: US5516897A, “Monoazo reactive dyes and solutions thereof” (Zeneca Limited, priority 1992, dated 1996)

Test: solubility in water
Assay type: physicochemical
Details: for solubility in water: temperature not stated
Description: The concentrated solution was desalinated in a visking tubing placed in distilled water and the water replaced periodically until no further chloride ions could be detected using […] and the product precipitated by addition of ethanol to give 46 g of the title product (80% yield) having a lambda max at 417 nm and very high solubility in water.
The higher solubility of C1 compared with D1 and D2 means that more C1 can be prepared in a given vessel than for D1 or D2.

| SMILES | solubility in water | also measured |
| --- | --- | --- |
| CCN(c1nc(Cl)nc(Nc2ccc(N=Nc3cc4c(S(=O)(=O)O)cc(S(=O)(=O)O)cc4cc3S(=O)(=O)O)c(NC(N)=O)c2)n1)c1cc(S(=O)(=O)O)ccc1C [Example 1] | very high |  |
| CCN(c1nc(Nc2ccc(N=Nc3cc4c(S(=O)(=O)O)cc(S(=O)(=O)[O-])cc4cc3S(=O)(=O)O)c(NC(N)=O)c2)nc(-[n+]2ccc(C(=O)O)cc2)n1)c1cc(S(=O)(=O)O)ccc1C [Example 2] | very high |  |
| CC(C)N(c1cccc(S(=O)(=O)O)c1)c1nc(Cl)nc(Nc2ccc(N=Nc3cc4c(S(=O)(=O)O)cc(S(=O)(=O)O)cc4cc3S(=O)(=O)O)c(NC(N)=O)c2)n1 [Example 3] | high |  |
| CC(C)N(c1ccc(S(=O)(=O)O)cc1)c1nc(Cl)nc(Nc2ccc(N=Nc3cc4c(S(=O)(=O)O)cc(S(=O)(=O)O)cc4cc3S(=O)(=O)O)c(NC(N)=O)c2)n1 [Example 4] |  | solubility in water at 20° C. (20° C.): very high |
| CCN(c1nc(Cl)nc(Nc2cc(NC(C)=O)c(N=Nc3cc(S(=O)(=O)O)c4cccc(S(=O)(=O)O)c4c3)cc2OC)n1)c1cc(S(=O)(=O)O)ccc1C [Example 5] |  | solubility in water at 25° C. (25° C.): good |
